# Assays:
# [1] = tested on: murine melanoma cell line, B16; assay: B16 cancer cell screening assay: inhibition of lactate dehydrogenase (LDH) release; format: cell-based; conditions: B16 cells exposed to several concentrations
# Description: (§1) The murine melanoma cell line, B16, was used to screen the activity of compounds comprising Formula (V). B16 cells were grown under standard conditions and exposed to several concentrations of each of the tested compounds.
# [2] = tested on: murine melanoma cell line, B16; assay: B16 cancer cell screening assay: inhibition of B16 proliferation; format: cell-based; conditions: B16 cells exposed to several concentrations; for IC50: read-out: B16 Profile IC50
# Description: as §1
# [3] = Mus musculus, B16, inhibition of lactate dehydrogenase (LDH) release
# [4] = Mus musculus, B16, inhibition of B16 proliferation
# [5] = inhibition of lactate dehydrogenase (LDH) release
# [6] = inhibition of B16 proliferation
structure (smiles),measurement,setting,value
CC[C@@H]1c2c(ccc(OC)c2O)C[C@H]2c3ccc(OC)cc3CCN12 [M-R-0001],IC50,[1]; [3],175 µM
same,IC50,[2]; [4],> 600 µM
COc1ccc2c(c1)CCN1[C@H]2Cc2cc(O)c(OC)cc2[C@H]1C1CCC1 [M-R-0002],IC50,[1]; [3],200 µM
same,IC50,[2]; [4],200 µM
COc1ccc2c(c1)CCN1[C@H]2Cc2ccc(OC)c(O)c2[C@H]1C1CCC1 [M-R-0003],IC50,[1]; [3],150 µM
same,IC50,[2]; [4],> 600 µM
COc1ccc2c(c1)CCN1Cc3cc(OC)c(O)cc3C[C@@H]21 [M-R-0004],IC50,[1]; [3],> 600 µM
same,IC50,[2]; [4],> 600 µM
COc1ccc2c(c1)CCN1[C@H](c3ccccc3)c3cc(OC)c(O)cc3C[C@@H]21 [M-R-0005],IC50,[1]; [3],30 µM
same,IC50,[2]; [4],35 µM
COc1ccc2c(c1)CCN1[C@@H](c3ccccc3)c3cc(OC)c(O)cc3C[C@@H]21 [M-R-0006],IC50,[1]; [3],35 µM
same,IC50,[2]; [4],35 µM
CCC[C@@H]1c2cc(OC)c(O)cc2C[C@H]2c3ccc(OC)cc3CCN12 [M-R-0007],B16 LDH IC50,[1]; [5],Inactive
same,IC50,[2]; [4],> 400 µM
COc1ccc2c(c1)CCN1Cc3c(ccc(OC)c3O)C[C@@H]21 [M-R-0008],IC50,[1]; [3],> 320 µM
same,IC50,[2]; [4],38 µM
COc1ccc2c(c1)CCN1Cc3cc(OC)c(O)cc3C[C@H]21 [M-R-0009],B16 LDH IC50,[1]; [5],Inactive
same,B16 Profile IC50,[2]; [6],Inactive
COc1ccc2c(c1)CCN1Cc3c(ccc(OC)c3O)C[C@H]21 [M-R-0010],B16 LDH IC50,[1]; [5],Inactive
same,IC50,[2]; [4],300 µM
COc1cc2c(cc1OC)CN1CCc3cc4c(cc3[C@@H]1C2)OCO4 [M-R-0011],IC50,[1]; [3],70 µM
same,IC50,[2]; [4],120 µM
COc1ccc2c(c1O)[C@H](Cc1ccccc1)N1CCc3cc4c(cc3[C@@H]1C2)OCO4 [M-R-0012],IC50,[1]; [3],> 700 µM
same,IC50,[2]; [4],> 600 µM
COc1cc2c(cc1O)[C@@H](Cc1ccccc1)N1CCc3cc4c(cc3[C@@H]1C2)OCO4 [M-R-0013],IC50,[1]; [3],700 µM
same,IC50,[2]; [6],75 µM
COc1ccc2c(c1)CCN1[C@@H](c3ccccc3)c3cc(O)c(O)cc3C[C@@H]21 [M-R-0014],IC50,[1]; [3],70 µM
same,IC50,[2]; [4],10 µM
COc1ccc2c(c1)CCN1[C@H](c3ccccc3)c3cc(O)c(O)cc3C[C@@H]21 [M-R-0015],IC50,[1]; [3],130 µM
same,IC50,[2]; [4],25 µM
COc1ccc2c(c1)CCN1[C@H](Cc3ccccc3)c3c(ccc(OC)c3O)C[C@@H]21 [M-R-0016],IC50,[1]; [3],700 µM
same,IC50,[2]; [4],75 µM
COc1ccc2c(c1)CCN1[C@H](Cc3ccccc3)c3cc(OC)c(O)cc3C[C@@H]21 [M-R-0017],IC50,[1]; [3],60 µM
same,IC50,[2]; [4],55 µM
COc1cc2c(cc1O)C[C@H]1c3cc4c(cc3CCN1[C@H]2c1ccccc1)OCO4 [M-R-0018],IC50,[1]; [3],30 µM
same,IC50,[2]; [4],35 µM
COc1cc2c(cc1O)C[C@H]1c3cc4c(cc3CCN1[C@@H]2c1ccccc1)OCO4 [M-R-0019],IC50,[1]; [3],50 µM
same,IC50,[2]; [4],45 µM
COc1ccc2c(c1)CCN1[C@@H](c3ccccc3Br)c3c(O)c(OC)cc(Br)c3C[C@@H]21 [M-R-0020],IC50,[1]; [3],30 µM
same,IC50,[2]; [4],18 µM
COc1ccc2c(c1)CCN1[C@H](Cc3ccccc3)c3c(O)c(OC)cc(Br)c3C[C@@H]21 [M-R-0021],IC50,[1]; [3],~350 µM
same,IC50,[2]; [4],65 µM
COc1ccc2c(c1)CCN1[C@@H](c3ccccc3N)c3c(O)c(OC)cc(Br)c3C[C@@H]21 [M-R-0022],IC50,[1]; [3],30 µM
same,IC50,[2]; [4],25 µM
COc1ccc2c(c1)CCN1[C@H](c3ccccc3)c3c(O)c(OC)cc(Br)c3C[C@@H]21 [M-R-0023],IC50,[1]; [3],40 µM
same,IC50,[2]; [4],27 µM
COc1ccc2c(c1)CCN1[C@H](c3ccccc3)c3c(ccc(OC)c3O)C[C@@H]21 [M-R-0024],IC50,[1]; [3],70 µM
same,IC50,[2]; [4],60 µM
COc1cc2c(cc1O)[C@@H](Cc1ccccc1)N1CCc3cc4c(cc3[C@@H]1C2)OCO4 [M-R-0025],IC50,[1]; [5],~350 µM
same,IC50,[2]; [6],> 160 µM
COc1cc2c(cc1O)[C@H](Cc1ccccc1)N1CCc3cc4c(cc3[C@@H]1C2)OCO4 [M-R-0026],IC50,[1]; [3],60 µM
same,IC50,[2]; [4],55 µM

# Reference: patent publication US9181237B2, “Substituted berbines and their synthesis” (MALLINCKRODT LLC, priority 2013, dated 2015)
